Experimental data taken from publication PMC12102262 (Nature Communications, 2025).

How the values were obtained:
EML4-ALK [1] = biological target: T1, EML4-ALK (Homo sapiens, UniProt Q9HC35+Q9UM73); assay: EML4-ALK degradation in BaF3-EML4-ALK cells by immunoblotting; type: cell-based; conditions: 1 μM, same time points
BaF3-EML4-ALK cells = assay: CCK8 cell viability time course, BaF3-EML4-ALK cells; type: cell-based; conditions: 1 μM
EML4-ALK [2] = biological target: T1, EML4-ALK; assay: EML4-ALK protein levels in H3122 xenograft tumors, I.P. dosing, immunoblotting; type: in vivo, nude mice; conditions: 10 mg/kg I.P. every other day, 8 doses
GID4 and ALK = GID4 and ALK (Homo sapiens, UniProt Q8IVV7+Q9UM73); assay: NanoBRET cellular ternary complex formation assay, HEK293T cells; type: cell-based; conditions: 6 h, increasing concentrations
Chain of GID4 and ALK (Q9UM73 1094-1400 limits assumed): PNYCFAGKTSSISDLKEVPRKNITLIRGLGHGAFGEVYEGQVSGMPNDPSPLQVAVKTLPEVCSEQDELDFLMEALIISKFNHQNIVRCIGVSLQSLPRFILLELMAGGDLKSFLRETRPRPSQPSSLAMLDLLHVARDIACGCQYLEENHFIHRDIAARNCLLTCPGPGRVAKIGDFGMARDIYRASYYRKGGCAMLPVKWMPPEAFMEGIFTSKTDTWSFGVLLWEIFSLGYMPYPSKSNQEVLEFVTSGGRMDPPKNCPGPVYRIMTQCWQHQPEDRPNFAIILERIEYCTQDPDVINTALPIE
Chain of GID4 and ALK (Q8IVV7 whole entry): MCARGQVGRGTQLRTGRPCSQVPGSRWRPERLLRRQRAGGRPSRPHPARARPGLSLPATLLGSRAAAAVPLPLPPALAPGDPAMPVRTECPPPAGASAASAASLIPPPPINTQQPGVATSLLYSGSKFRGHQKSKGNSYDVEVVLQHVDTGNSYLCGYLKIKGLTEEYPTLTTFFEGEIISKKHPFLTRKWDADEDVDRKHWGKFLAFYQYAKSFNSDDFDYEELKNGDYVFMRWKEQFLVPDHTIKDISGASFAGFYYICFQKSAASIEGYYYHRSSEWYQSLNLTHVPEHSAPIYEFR

- effect on levels of EML4-ALK (EML4-ALK [1]): had no effect
- effect on EML4-ALK protein levels in tumors (EML4-ALK [2]): failed to reduce
- BRET signal between GID4 and ALK (GID4 and ALK): did not induce any BRET signal
SMILES: COc1cc(N2CCC(N3CCN(C)CC3)CC2)ccc1Nc1ncc(Cl)c(Nc2ccccc2P(C)(C)=O)n1 [Brigatinib]
- time post-treatment at which cell proliferation is inhibited (BaF3-EML4-ALK cells): 0.5 h
